In ChEMBL document CHEMBL5344406, “1,2,3-Triazole-containing hybrids with potential antibacterial activity against ESKAPE pathogens” (2022):
Converted amounts (≈) assume the structure as drawn.

Tests used:
Format in all cases: functional
Escherichia coli [1] = test: Antibacterial activity against Escherichia coli JM109 assessed as bacterial growth inhibition incubated for 18 to 20 hrs by broth microdilution method; conditions: time 18-20 hrs
Escherichia coli [2] = test: Potency index, ratio of Streptomycin MIC to test compound MIC for antibacterial activity against Escherichia coli JM109 assessed as bacterial growth inhibition incubated for 18 to 20 hrs by broth microdilution method; conditions: time 18-20 hrs
Bacillus subtilis [3] = test: Potency index, ratio of Streptomycin MIC to test compound MIC for antibacterial activity against Bacillus subtilis assessed as bacterial growth inhibition incubated for 18 to 20 hrs by broth microdilution method; conditions: time 18-20 hrs
Bacillus subtilis [4] = test: Antibacterial activity against Bacillus subtilis assessed as bacterial growth inhibition incubated for 18 to 20 hrs by broth microdilution method; conditions: time 18-20 hrs
Pseudomonas aeruginosa [5] = test: Potency index, ratio of Penicillin MIC to test compound MIC for antibacterial activity against Pseudomonas aeruginosa assessed as bacterial growth inhibition by broth dilution method
Klebsiella pneumoniae [6] = test: Potency index, ratio of Penicillin MIC to test compound MIC for antibacterial activity against Klebsiella pneumoniae assessed as bacterial growth inhibition by broth dilution method
Pseudomonas aeruginosa [7] = test: Antibacterial activity against Pseudomonas aeruginosa assessed as bacterial growth inhibition by broth dilution method
Klebsiella pneumoniae [8] = test: Antibacterial activity against Klebsiella pneumoniae assessed as bacterial growth inhibition by broth dilution method
Staphylococcus aureus [9] = test: Antibacterial activity against Ciprofloxacin-resistant Staphylococcus aureus assessed as bacterial growth inhibition
Acinetobacter baumannii = test: Antibacterial activity against Ciprofloxacin-resistant Acinetobacter baumannii assessed as bacterial growth inhibition
Escherichia coli [10] = test: Antibacterial activity against Ciprofloxacin-resistant Escherichia coli assessed as bacterial growth inhibition
Escherichia coli [11] = test: Potency index, ratio of Ciprofloxacin MIC to test compound MIC for antibacterial activity against Escherichia coli MTCC 443 assessed as bacterial growth inhibition by broth microdilution method
Staphylococcus aureus [12] = test: Potency index, ratio of Ciprofloxacin MIC to test compound MIC for antibacterial activity against Staphylococcus aureus MTCC 96 assessed as bacterial growth inhibition by broth microdilution method
Streptococcus pyogenes [13] = test: Antibacterial activity against Streptococcus pyogenes MTCC 442 assessed as bacterial growth inhibition by broth microdilution method
Staphylococcus aureus [14] = test: Antibacterial activity against Staphylococcus aureus MTCC 96 assessed as bacterial growth inhibition by broth microdilution method
Pseudomonas aeruginosa [15] = test: Antibacterial activity against Pseudomonas aeruginosa MTCC 1688 assessed as bacterial growth inhibition by broth microdilution method
Escherichia coli [16] = test: Antibacterial activity against Escherichia coli MTCC 443 assessed as bacterial growth inhibition by broth microdilution method
Pseudomonas aeruginosa [17] = test: Potency index, ratio of Ciprofloxacin MIC to test compound MIC for antibacterial activity against Pseudomonas aeruginosa MTCC 1688 assessed as bacterial growth inhibition by broth microdilution method
Streptococcus pyogenes [18] = test: Potency index, ratio of Ciprofloxacin MIC to test compound MIC for antibacterial activity against Streptococcus pyogenes MTCC 442 assessed as bacterial growth inhibition by broth microdilution method
[19] = system: Staphylococcus epidermidis; test: Antibacterial activity against Staphylococcus epidermidis assessed as bacterial growth inhibition by broth dilution method
[20] = system: Staphylococcus epidermidis; test: Potency index, ratio of streptomycin MIC to test compound MIC for antibacterial activity against Staphylococcus epidermidis assessed as bacterial growth inhibition by broth dilution method
Staphylococcus aureus [21] = test: Antibacterial activity against Staphylococcus aureus assessed as bacterial growth inhibition by broth dilution method
Staphylococcus aureus [22] = test: Potency index, ratio of streptomycin MIC to test compound MIC for antibacterial activity against Staphylococcus aureus assessed as bacterial growth inhibition by broth dilution method
Staphylococcus aureus [23] = test: Antibacterial activity against methicillin-resistant Staphylococcus aureus assessed as bacterial growth inhibition
Staphylococcus aureus [24] = test: Antibacterial activity against Staphylococcus aureus assessed as bacterial growth inhibition by dilution method
Staphylococcus aureus [25] = test: Antibacterial activity against methicillin- resistant Staphylococcus aureus assessed as bacterial growth inhibition by dilution method
Staphylococcus aureus [26] = test: Potency index, ratio of Linezolid MIC to test compound MIC for antibacterial activity against methicillin- resistant Staphylococcus aureus assessed as bacterial growth inhibition by dilution method
Bacillus subtilis [27] = test: Antibacterial activity against Bacillus subtilis assessed as bacterial growth inhibition incubated for 24 hrs by serial dilution method
Escherichia coli [28] = test: Antibacterial activity against Escherichia coli assessed as bacterial growth inhibition incubated for 24 hrs by serial dilution method
Staphylococcus aureus [29] = test: Antibacterial activity against Staphylococcus aureus assessed as bacterial growth inhibition incubated for 24 hrs by serial dilution method
Pseudomonas aeruginosa [30] = test: Antibacterial activity against Pseudomonas aeruginosa assessed as bacterial growth inhibition incubated for 24 hrs by serial dilution method
Salmonella enterica = test: Antibacterial activity against Salmonella enterica assessed as bacterial growth inhibition incubated for 24 hrs by serial dilution method

Compound `Cc1cc2cc(C#CCCCCCCc3cn(C4(C(C)C)Oc5cc6oc(=O)ccc6cc5C4=O)nn3)c(=O)oc2cc1O` (configuration not stated) has an MIC (Escherichia coli [1]) of 0.15 µg/mL (≈ 0.253 µM), a Ratio (Escherichia coli [2]) of 6.7 and a Ratio (Bacillus subtilis [3]) of 100. For the same compound, the MIC (Bacillus subtilis [4]) was 0.02 µg/mL (≈ 0.0337 µM).

Work on `CC1(C)O[C@@H]2[C@@H](CC[C@]3(COC(C)(C)O3)[C@H]2OCc2cn(-c3c(Cl)cc(Cl)cc3Cl)nn2)O1` yielded a Ratio (Pseudomonas aeruginosa [5]) of 16, a Ratio (Klebsiella pneumoniae [6]) of 4 and an MIC (Pseudomonas aeruginosa [7]) of 1.17 µg/mL (≈ 2.26 µM). The MIC (Klebsiella pneumoniae [8]) was 9.37 µg/mL (≈ 18.1 µM).

Compound `CCOc1c(NC(=O)c2ccc(NC(=O)c3ccc(NC(=O)[C@H](Cc4c[nH]nn4)NC(=O)/C(C)=C/c4ccc(O)cc4)cc3)c(OCC)c2O)ccc(C(=O)O)c1O` has an MIC (Staphylococcus aureus [9]) of 0.031 µg/mL (≈ 0.0391 µM), an MIC (Acinetobacter baumannii) of 0.031 µg/mL (≈ 0.0391 µM) and an MIC (Escherichia coli [10]) of 0.031 µg/mL (≈ 0.0391 µM).

With `CN(C)Cc1cn([C@@H]2C(=O)N3[C@@H]2SC(C)(C)[C@@H]3C(=O)O)nn1` the Ratio (Escherichia coli [11]) was 2.5, the Ratio (Staphylococcus aureus [12]) was 2.5 and the MIC (Streptococcus pyogenes [13]) was 0.5 µg/mL (≈ 1.54 µM). For the same compound, the MIC (Staphylococcus aureus [14]) was 0.5 µg/mL (≈ 1.54 µM), the MIC (Pseudomonas aeruginosa [15]) was 0.5 µg/mL (≈ 1.54 µM) and the MIC (Escherichia coli [16]) was 0.5 µg/mL (≈ 1.54 µM). The Ratio (Pseudomonas aeruginosa [17]) was 2.5 and the Ratio (Streptococcus pyogenes [18]) was 2.5.

`CC1(C)O[C@@H]2[C@@H](CC[C@]3(COC(C)(C)O3)[C@H]2OCc2cn(-c3cccc4ccccc34)nn2)O1` showed an MIC [19] of 1.17 µg/mL (≈ 2.51 µM), a Ratio [20] of 4 and an MIC (Staphylococcus aureus [21]) of 2.34 µg/mL (≈ 5.03 µM). It also gave a Ratio (Staphylococcus aureus [22]) of 4.

Work on `O=C1C(=O)N(CCn2cc(COc3cccc4cccnc34)nn2)c2c(Br)cc(Br)cc21` yielded an MIC (Staphylococcus aureus [23]) of 15.2 µg/mL (≈ 27.3 µM).

With `CC(=O)NC[C@H]1CN(c2ccc(-n3cc(-c4ncccn4)nn3)c(F)c2)C(=O)O1` the MIC (Staphylococcus aureus [24]) was 2 µg/mL (≈ 5.03 µM), the MIC (Staphylococcus aureus [25]) was 0.5 µg/mL (≈ 1.26 µM) and the Ratio (Staphylococcus aureus [26]) was 4.

With `CC(C)C[C@H](NC(=O)OC(C)(C)C)C(=O)OCc1cn(Cc2ccc(F)cc2)nn1` the MIC (Bacillus subtilis [27]) was 3.12 µg/mL (≈ 7.42 µM), the MIC (Escherichia coli [28]) was 3.12 µg/mL (≈ 7.42 µM) and the MIC (Staphylococcus aureus [29]) was 3.12 µg/mL (≈ 7.42 µM). The MIC (Pseudomonas aeruginosa [30]) was 3.12 µg/mL (≈ 7.42 µM) and the MIC (Salmonella enterica) was 3.12 µg/mL (≈ 7.42 µM).
